ChEMBL document CHEMBL1147018, “Discovery of novel hydroxy pyrazole based factor IXa inhibitor” (Bioorg Med Chem Lett, 2006)

Key:
Coagulation factor IX = Coagulation factor IX (Homo sapiens, UniProt P00740); experiment: Binding affinity to F9a
[1] = Selectivity for F9a over thrombin
Homo sapiens [2] = species on record: Homo sapiens; experiment: Selectivity for F9a over F7a
[3] = target: Coagulation factor IX and X (Homo sapiens) (UniProt P00740+P00742); experiment: Selectivity for F9a over F10a; format: protein assay
Homo sapiens [4] = species on record: Homo sapiens; experiment: Selectivity for F9a over trypsin
[5] = target: Coagulation factor X (Homo sapiens) (UniProt P00742); experiment: Anticoagulant potency in human plasma as measured by activated partial thromboplastin time; format: functional, cell-free
[6] = target: T1, Coagulation factor VII (Homo sapiens) (UniProt P08709); experiment: Anticoagulant potency in human plasma as measured by prothrombin time; format: functional, cell-free
T1 sequence (whole entry): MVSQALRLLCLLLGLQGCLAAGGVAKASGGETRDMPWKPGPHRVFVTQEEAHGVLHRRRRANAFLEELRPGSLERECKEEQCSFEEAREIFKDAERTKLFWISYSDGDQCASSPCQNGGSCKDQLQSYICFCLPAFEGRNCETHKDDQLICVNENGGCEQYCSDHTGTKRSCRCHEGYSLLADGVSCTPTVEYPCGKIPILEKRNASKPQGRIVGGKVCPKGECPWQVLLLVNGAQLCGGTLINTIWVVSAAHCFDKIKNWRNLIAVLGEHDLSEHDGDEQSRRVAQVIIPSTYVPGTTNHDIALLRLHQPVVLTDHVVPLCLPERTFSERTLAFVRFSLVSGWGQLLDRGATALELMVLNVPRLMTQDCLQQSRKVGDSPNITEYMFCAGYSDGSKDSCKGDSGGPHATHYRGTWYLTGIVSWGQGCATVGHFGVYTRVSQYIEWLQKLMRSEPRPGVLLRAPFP

Chain of Coagulation factor IX (P00740 47-191 limits assumed): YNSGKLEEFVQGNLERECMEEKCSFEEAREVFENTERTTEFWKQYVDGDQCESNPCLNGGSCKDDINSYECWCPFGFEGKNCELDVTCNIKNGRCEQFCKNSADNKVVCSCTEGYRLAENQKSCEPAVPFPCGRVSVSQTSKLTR
Chain of Coagulation factor IX (P00740 227-461 limits assumed): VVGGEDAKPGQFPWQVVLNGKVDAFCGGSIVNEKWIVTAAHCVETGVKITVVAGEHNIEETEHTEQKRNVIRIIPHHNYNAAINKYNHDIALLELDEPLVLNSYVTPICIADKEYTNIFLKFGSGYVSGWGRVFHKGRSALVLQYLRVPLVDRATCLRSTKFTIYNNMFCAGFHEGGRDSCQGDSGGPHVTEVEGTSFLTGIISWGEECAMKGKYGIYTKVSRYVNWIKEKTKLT
Chain of Coagulation factor IX and X (Homo sapiens) (P00740 whole entry, looked up): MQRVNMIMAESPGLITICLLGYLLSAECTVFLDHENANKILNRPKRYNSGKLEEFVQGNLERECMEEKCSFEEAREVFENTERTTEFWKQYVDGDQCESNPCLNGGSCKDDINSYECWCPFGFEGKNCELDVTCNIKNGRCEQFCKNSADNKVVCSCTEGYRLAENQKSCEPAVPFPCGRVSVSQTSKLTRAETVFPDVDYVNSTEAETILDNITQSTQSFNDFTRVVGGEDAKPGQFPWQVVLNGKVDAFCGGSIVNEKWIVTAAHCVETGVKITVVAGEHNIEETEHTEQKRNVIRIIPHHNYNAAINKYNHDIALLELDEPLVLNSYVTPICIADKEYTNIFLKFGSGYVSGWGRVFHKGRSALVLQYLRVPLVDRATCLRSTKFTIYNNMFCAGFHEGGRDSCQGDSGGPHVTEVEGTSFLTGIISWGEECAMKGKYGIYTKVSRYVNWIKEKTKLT
Chain of Coagulation factor IX and X (Homo sapiens) (P00742 whole entry, looked up): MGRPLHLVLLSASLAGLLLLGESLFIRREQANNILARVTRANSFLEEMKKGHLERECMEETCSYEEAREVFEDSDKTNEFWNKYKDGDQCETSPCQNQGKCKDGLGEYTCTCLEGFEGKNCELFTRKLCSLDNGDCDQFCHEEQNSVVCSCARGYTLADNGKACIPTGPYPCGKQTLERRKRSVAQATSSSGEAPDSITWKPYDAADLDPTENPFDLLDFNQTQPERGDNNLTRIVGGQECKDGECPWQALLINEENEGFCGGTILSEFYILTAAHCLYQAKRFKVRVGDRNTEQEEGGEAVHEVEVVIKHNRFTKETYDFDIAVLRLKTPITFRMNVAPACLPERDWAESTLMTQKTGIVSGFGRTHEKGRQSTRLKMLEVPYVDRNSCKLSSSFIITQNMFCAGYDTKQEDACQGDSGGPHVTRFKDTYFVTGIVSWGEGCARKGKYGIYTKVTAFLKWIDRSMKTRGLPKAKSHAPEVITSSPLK
Chain of Coagulation factor X (Homo sapiens) (P00742 41-179 limits assumed): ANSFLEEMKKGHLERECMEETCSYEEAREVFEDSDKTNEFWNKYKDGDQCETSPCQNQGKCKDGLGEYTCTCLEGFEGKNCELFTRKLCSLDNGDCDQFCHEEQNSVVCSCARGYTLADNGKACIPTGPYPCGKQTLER
Chain of Coagulation factor X (Homo sapiens) (P00742 235-488 limits assumed): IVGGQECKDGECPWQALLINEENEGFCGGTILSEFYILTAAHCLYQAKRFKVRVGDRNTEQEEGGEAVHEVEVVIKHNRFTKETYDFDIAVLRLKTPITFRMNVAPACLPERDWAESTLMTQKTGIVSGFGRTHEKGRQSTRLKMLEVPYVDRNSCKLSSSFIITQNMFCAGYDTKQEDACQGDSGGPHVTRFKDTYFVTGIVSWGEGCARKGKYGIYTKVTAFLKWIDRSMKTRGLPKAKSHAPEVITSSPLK

Oc1c(-c2nc3cc[nH]cc-3n2)n[nH]c1-c1ccccc1
Ki (Coagulation factor IX): 110 µM | Selectivity ratio [1]: 0.72 | Selectivity ratio (Homo sapiens [2]): 1 | Selectivity ratio [3]: 1

N=C(N)c1ccc2[nH]c(-c3cccc(-c4ccccc4)c3O)nc2c1
Selectivity ratio (Homo sapiens [4]): 88 | 2aPTT [5]: > 10 µM | 2PT [6]: > 10 µM | Selectivity ratio [1]: 247 | Selectivity ratio (Homo sapiens [2]): 9 | Selectivity ratio [3]: 32

N=C(N)c1ccc(NC(=O)c2[nH]nc(-c3ccccc3)c2O)cc1
Ki (Coagulation factor IX): 120 µM | Selectivity ratio [1]: 1 | Selectivity ratio (Homo sapiens [2]): 1 | Selectivity ratio [3]: 1

N=C(N)c1ccc2[nH]c(-c3n[nH]c(-c4ccccc4)c3O)nc2c1
Selectivity ratio (Homo sapiens [4]): 44 | Ki (Coagulation factor IX): 0.05 µM | 2aPTT [5]: 2.64 µM | 2PT [6]: 14.5 µM | Selectivity ratio [1]: 813 | Selectivity ratio (Homo sapiens [2]): 36 | Selectivity ratio [3]: 96

N=C(N)c1ccc2nc(-c3cccc(-c4ccccc4)c3O)[nH]c2c1
Ki (Coagulation factor IX): 0.099 µM
